In US9212171B2, “Ethynyl compounds” (Hoffmann-La Roche Inc., priority 2011, dated 2015):

Molecular target: human mGlu5a receptor (Homo sapiens (Human), UniProt P41594)
Test: Intracellular Ca2+ mobilization assay (mGlu5 PAM)
Assay type: cell-based
Conditions: for EC50: HEK-293 cells stably transfected with human mGlu5a, L-glutamate added at EC20 (typically around 80 μM); for Emax: maximal response in % of the maximal stimulatory effect obtained with saturating concentrations of L-glutamate, read-out: Eff. (%)
Experimental: A monoclonal HEK-293 cell line stably transfected with a cDNA encoding for the human mGlu5a receptor was generated; for the work with mGlu5 Positive Allosteric Modulators (PAMs), a cell line with low receptor expression levels and low constitutive receptor activity was selected to allow the differentiation of agonistic versus PAM activity. Cells were cultured according to standard protocols (Freshney, 2000) in Dulbecco's Modified Eagle Medium with high glucose supplemented with 1 mM glutamine, 10% (vol/vol) heat-inactivated bovine calf serum, Penicillin/Streptomycin, […] hygromycin and 15 μg/ml blasticidin (all cell culture reagents and antibiotics from Invitrogen, Basel, Switzerland).
About 24 hrs before an experiment, 5×10^4 cells/well were seeded in poly-D-lysine coated, black/clear-bottomed 96-well plates. The cells were loaded with 2.5 μM Fluo-4AM in loading buffer (1×HBSS, 20 mM HEPES) for 1 hr at 37° C. and washed five times with loading buffer. The cells were transferred into a Functional Drug Screening System 7000 (Hamamatsu, Paris, France), and 11 half logarithmic serial dilutions of test compound at 37° C. were added and the cells were incubated for 10-30 min. with on-line recording of fluorescence. Following this pre-incubation step, the agonist L-glutamate was added to the cells at a concentration corresponding to EC20 (typically around 80 μM) with on-line recording of fluorescence; in order to account for day-to-day variations in the responsiveness of cells, the EC20 of glutamate was determined immediately ahead of each experiment by recording of a full dose-response curve of glutamate.
Responses were measured as peak increase in fluorescence minus basal (i.e. fluorescence without addition of L-glutamate), normalized to the maximal stimulatory effect obtained with saturating concentrations of L-glutamate. Graphs were plotted with the % maximal stimulatory using XLfit, a curve fitting program that iteratively plots the data using Levenburg Marquardt algorithm. The single site competition analysis equation used was y=A+((B−A)/(1+((x/C)D))), where y is the % maximal stimulatory effect, A is the minimum y, B is the maximum y, C is the EC50, x is the log 10 of the concentration of the competing compound and D is the slope of the curve (the Hill Coefficient). From these curves the EC50 (concentration at which half maximal stimulation was achieved), the Hill coefficient as well as the maximal response in % of the maximal stimulatory effect obtained with saturating concentrations of L-glutamate were calculated.
A depression of the signal observed after addition of the EC20 concentration of L-glutamate was indicative of an inhibitory activity of the test compound.

human mGlu5a receptor, sequence (P41594 other isoform, or with tags, fused parts or gaps): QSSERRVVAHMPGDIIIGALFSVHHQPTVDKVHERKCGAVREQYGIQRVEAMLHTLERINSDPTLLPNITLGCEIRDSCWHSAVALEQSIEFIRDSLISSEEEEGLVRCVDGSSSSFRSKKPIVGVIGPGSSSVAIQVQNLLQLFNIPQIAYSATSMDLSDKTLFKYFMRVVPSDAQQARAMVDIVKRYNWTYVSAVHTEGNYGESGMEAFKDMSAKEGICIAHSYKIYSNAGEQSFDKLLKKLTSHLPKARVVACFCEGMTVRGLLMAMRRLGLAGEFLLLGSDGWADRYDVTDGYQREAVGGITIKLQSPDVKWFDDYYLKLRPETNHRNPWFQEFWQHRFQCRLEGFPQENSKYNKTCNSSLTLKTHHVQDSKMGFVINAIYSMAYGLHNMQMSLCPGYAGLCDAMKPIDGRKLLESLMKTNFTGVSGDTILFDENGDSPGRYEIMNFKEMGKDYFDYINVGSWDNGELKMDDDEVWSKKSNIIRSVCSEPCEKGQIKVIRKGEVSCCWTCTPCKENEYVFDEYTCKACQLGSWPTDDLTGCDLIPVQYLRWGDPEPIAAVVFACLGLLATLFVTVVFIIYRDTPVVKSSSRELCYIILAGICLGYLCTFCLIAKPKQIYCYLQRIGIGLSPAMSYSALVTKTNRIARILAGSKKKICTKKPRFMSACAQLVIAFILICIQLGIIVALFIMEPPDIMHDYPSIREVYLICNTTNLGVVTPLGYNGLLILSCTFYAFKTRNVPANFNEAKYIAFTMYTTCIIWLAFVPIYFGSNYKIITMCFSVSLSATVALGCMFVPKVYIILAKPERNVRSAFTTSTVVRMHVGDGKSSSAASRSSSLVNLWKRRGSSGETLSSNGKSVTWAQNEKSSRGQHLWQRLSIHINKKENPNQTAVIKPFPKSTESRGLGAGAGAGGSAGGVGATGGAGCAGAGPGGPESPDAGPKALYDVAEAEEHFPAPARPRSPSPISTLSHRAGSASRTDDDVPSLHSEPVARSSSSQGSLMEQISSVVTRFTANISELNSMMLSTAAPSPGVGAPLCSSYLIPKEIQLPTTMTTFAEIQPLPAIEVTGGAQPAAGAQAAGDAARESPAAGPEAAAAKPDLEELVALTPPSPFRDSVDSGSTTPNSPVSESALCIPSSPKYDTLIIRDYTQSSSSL

With `CN1C(=O)C(c2ncc(C#Cc3cccc(F)c3)cn2)CCC1(C)C` (racemic) [Example 17, (RS)-3-(5-((3-fluorophenyl)ethynyl)pyrimidin-2-yl)-1,6,6-trimethylpiperidin-2-one] as the compound, how does the EC50 read?
The EC50 was 132 nM.

What about the Emax of the same compound?
The Emax was 80%.

Which EC50 does the source give for `CN1C(=O)C(O)(c2ccc(C#Cc3ccccc3)cn2)CC1(C)C` (racemic) [Example 18, (RS)-3-Hydroxy-1,5,5-trimethyl-3-(5-(phenylethynyl)pyridin-2-yl)pyrrolidin-2-one] here?
The EC50 was 414 nM.

And the Emax?
Its Emax is 126%.

What does the source list for `COC1(c2ccc(C#Cc3ccccc3)cn2)CC(C)(C)N(C)C1=O` (racemic) [Example 19, (RS)-3-Methoxy-1,5,5-trimethyl-3-(5-(phenylethynyl)pyridin-2-yl)pyrrolidin-2-one]?
EC50: 96 nM; Emax: 108%

What does the source list for `CN1C(=O)C(C)(c2ccc(C#Cc3ccccc3)cn2)CC1(C)C` (racemic) [Example 20, (RS)-1,3,5,5-Tetramethyl-3-(5-(phenylethynyl)pyridin-2-yl)pyrrolidin-2-one]?
EC50: 90 nM; Emax: 109%

Which results are given for `CN1C(=O)C(c2ncc(C#Cc3cccc(F)c3)cc2F)CC1(C)C` (racemic) [Example 21, (RS)-3-(3-fluoro-5-((3-fluorophenyl)ethynyl)pyridin-2-yl)-1,5,5-trimethylpyrrolidin-2-one]?
EC50: 188 nM; Emax: 91%

`CN1CCCCC(c2ccc(C#Cc3ccccc3)cn2)C1=O` (racemic) [Example 22, (RS)-1-Methyl-3-(5-phenylethynyl-pyridin-2-yl)-azepan-2-one] was tested. Which EC50 did it give?
Its EC50 is 59 nM.

What about the Emax of the same compound?
The Emax was 59%.

What does the source list for `CN1CCCCC(c2ccc(C#Cc3ccc(F)cc3)cn2)C1=O` (racemic) [Example 23, (RS)-3-[5-(4-Fluoro-phenylethynyl)-pyridin-2-yl]-1-methyl-azepan-2-one]?
EC50: 90 nM; Emax: 61%

`CN1CCCCC(c2ccc(C#Cc3cccc(F)c3)cn2)C1=O` (racemic) [Example 24, (RS)-3-[5-(3-Fluoro-phenylethynyl)-pyridin-2-yl]-1-methyl-azepan-2-one] was tested. Which EC50 did it give?
The EC50 was 39 nM.

What about the Emax of the same compound?
Its Emax is 69%.

`CN1C(=O)[C@@H](c2ccc(C#Cc3ccccc3)cn2)[C@@H]2CCC[C@@H]21` (racemic) [Example 27, (3RS,3aSR,6aSR)-1-Methyl-3-(5-phenylethynyl-pyridin-2-yl)-hexahydro-cyclopenta[b]pyrrol-2-one] was tested. Which EC50 did it give?
The EC50 was 47 nM.

What about the Emax of the same compound?
Its Emax is 53%.

What does the source list for `CN1C(=O)[C@@H](c2ccc(C#Cc3ccc(F)cc3)cn2)[C@@H]2CCC[C@@H]21` (racemic) [Example 29, (3RS,3aSR,6aSR)-3-[5-(4-Fluoro-phenylethynyl)-pyridin-2-yl]-1-methyl-hexahydro-cyclopenta[b]pyrrol-2-one]?
EC50: 78 nM; Emax: 53%

How did the EC50 turn out when `CN1C(=O)[C@@H](c2ccc(C#Cc3cccc(F)c3)cn2)[C@@H]2CCC[C@@H]21` (racemic) [Example 30, (3RS,3aSR,6aSR)-3-[5-(3-Fluoro-phenylethynyl)-pyridin-2-yl]-1-methyl-hexahydro-cyclopenta[b]pyrrol-2-one] was run?
Its EC50 is 33 nM.

What about the Emax of the same compound?
Its Emax is 57%.

Which results are given for `CN1C(=O)[C@@H](c2ncc(C#Cc3ccccc3)cn2)[C@@H]2CCC[C@@H]21` (racemic) [Example 33, (3RS,3aSR,6aSR)-1-Methyl-3-(5-phenylethynyl-pyrimidin-2-yl)-hexahydro-cyclopenta[b]pyrrol-2-one]?
EC50: 52 nM; Emax: 52%

`CN1C(=O)[C@@H](c2ccc(C#Cc3ccccc3)cn2)[C@@H]2CCCC[C@@H]21` (racemic) [Example 34, (3RS,6SR,7SR)-1-Methyl-3-(5-phenylethynyl-pyridin-2-yl)-octahydro-indol-2-one] was tested. Which EC50 did it give?
Its EC50 is 185 nM.

What about the Emax of the same compound?
Its Emax is 82%.

With `CN1C(=O)[C@H](c2ccc(C#Cc3ccccc3)cn2)[C@@H]2CCCC[C@@H]21` (racemic) [Example 35, (3SR,6SR,7SR)-1-Methyl-3-(5-phenylethynyl-pyridin-2-yl)-octahydro-indol-2-one] as the compound, how does the EC50 read?
Its EC50 is 101 nM.

What about the Emax of the same compound?
The Emax was 60%.
